# Assay results: US20140119985A1, “Photodynamic Control of Microbial Growth on Surfaces” (ORTNER CLEANROOM ENGINEERING GMBH, priority 2010, published 2014)
# Like-named read-outs stand apart in the source and are kept apart here.
# Experiments:
# Klebsiella pneumoniae = settings: LED 623 nm
# Procedure: (§1) Typically, 3 μl of a growing cell culture having a titer of 7×10^7 cfu/ml were used in contact assays, whereas 50 μl were employed in plating assays. In some assays, the cell cultures were employed in a dilution of 10^−1, 10^−2, 10^−3, 10^−4, and 10^−5, respectively.
# For contact assays, pieces of the textile fabric having a defined size of 1 cm×1 cm were employed.
# (§2) In contact assays, the distance between the radiation source and the piece of textile fabric was in a range between 10 cm and 60 cm.
# In brief, the contact assays were performed as follows: Pieces of a textile fabric (ION-NOSTAT VI.2) having a defined size (1×1 cm) were immersed for 3 h in an aqueous solution of reactive dye, such as methylene blue (100 μg/ml each). After complete drying of the textile pieces, 3 μl of a growing cell culture were added to the surface of the textile pieces. The pieces were irradiated with appropriate radiation (light) for a given period of time. Then, the textile pieces were contacted with agar plates; and the plates were incubated at 37° C. for 24 h.
# The contact assay was performed as described in Example 1 using an aqueous solution of diemethyl methylene blue (DMMB) and new methylene blue (NMB), respectively (100 μg/ml each) as well as a combination thereof. Staphylococcus aureus and Klebsiella pneumoniae were employed as test organisms. Irradiation was accomplished by means of a LED (High Power Alustar 3 W 10° LED×ON Rot, from Conrad, Hirschau, Germany) at a wavelength of 623 nm. The distance between the LED and the textile pieces was 50 cm.
# Staphylococcus aureus [1] = test: Contact assay on dye-treated textile pieces; format: cell-based; settings: for cell growth: irradiation 1 min, distance 50 cm, about 10^4 cfu; for cfu calculated per ml cell culture: plates incubated 24 h; for number of colonies upon irradiation: distance 30 cm
# Candida albicans [2] = settings: dilution 10^−4, incubation period two days longer as compared to control
# Procedure: as §1
# (§3) Methylene blue (MB), dimethyl methylene blue (DMMB), new metylene blue (NMB), and toluidine blue (TB) were provided as solutions having a dye concentration of 100 μg/ml. 50 μl of either solution were used for plating assays.
# (§4) In brief, the plating assays were performed as follows: In a well of a (96 well) microtiter plate 50 μl of a growing cell culture were mixed with aqueous solution of reactive dye, such as methylene blue (100 μg/ml each). The samples were irradiated with appropriate radiation (light) for a given period of time. The samples (100 μl) were plated on agar plates. The plates were incubated at 37° C. for 24 h.
# [3] = test system: Stenotrophomonas maltophilia; test: Contact assay on dye-treated textile pieces; format: cell-based; settings: for cfu calculated per ml cell culture: plates incubated 48 h
# Procedure: as §1
# (§5) The textile fabric employed was a clean room textile, in particular ION-NOSTAT VI.2 (Dastex Reinraumzubehör, Muggensturm, Germany). For contact assays, pieces of the textile fabric having a defined size of 1 cm×1 cm were employed.
# as §2
# (§6) After complete drying of the textile pieces, 3 μl of a growing cell culture were added to the surface of the textile pieces. The pieces were irradiated with appropriate radiation (light) for a given period of time. Then, the textile pieces were contacted with agar plates; and the plates were incubated at 37° C. for 24 h.
# Staphylococcus aureus [4] = settings: for colony forming units obtained: incubation with dye (3-5 min) without irradiation; for colonies detected: irradiation 3 min
# Candida albicans [5] = test: Contact assay on dye-treated textile pieces; format: cell-based; settings: irradiation 1 min, 2 min, 3 min, laser 15 mW, 532 nm
# Procedure: as §1, §5, §2, §6
# [6] = test system: Stenotrophomonas maltophilia; settings: dilution 10^−5
# Procedure: as §1, §3, §4
# [7] = black light lamp, irradiation for 30 s
# [8] = black light lamp, irradiation for 3 min
# [9] = mercury lamp, irradiation for 30 s
# [10] = mercury lamp, irradiation for 3 min
# [11] = 1 × pre-irradiation (3 min) of textile before contact with cells
# [12] = 2 × pre-irradiation (3 min each, 90 min between) of textile before contact with cells
# [13] = Control (dye, no irrad.), dilution 10^−5
# [14] = Irradiation for 3 min, dilution 10^−5
# [15] = irradiation 3 min, laser 15 mW, 532 nm
# [16] = textile immersed in dye 100 μg/ml, irradiation 3 min, laser 15 mW, 532 nm
# [17] = textile incubated with dye 100 μg/ml, no irradiation
# [18] = incubation with dye, mercury lamp 515-560 nm
structure (smiles),measurement,setting,value
"Cc1cc(N(C)C)cc2[s+]c3cc(N(C)C)cc(C)c3nc12.[Cl-] [dimethyl methylene blue, 3,7-bis(dimethylamino)-1,9-dimethyldiphenothiazin-5-ium chloride]",inhibition of cell growth,Klebsiella pneumoniae; about 10^4 cfu,significant inhibition of cell growth
same,cell numbers,Klebsiella pneumoniae; after 5 min of irradiation,noticeable reduction of cell numbers
same,reduction of cell numbers,Klebsiella pneumoniae; irradiation period of 10 min,further increase
same,cell growth,Staphylococcus aureus [1]; LED 623 nm,no cell growth could be detected
same,dye released from stained textile pieces,"single immersion with acetone, acetic acid, and ethanol, data not shown",Trace amounts
same,dye released from stained textile pieces,"two cycles of immersion in 99% acetone, 99% acetic acid, 1 M NaOH, 99% ethanol, stained with 100 mg/l",No dye
"CN(C)c1ccc2nc3ccc(N(C)C)cc3[s+]c2c1.[Cl-] [methylene blue, 3,7-bis(dimethylamino)-phenothiazin-5-ium chloride]",cfu per ml,Candida albicans [2]; [7],2.7 × 10^7 cfu/ml*
same,cfu per ml,Candida albicans [2]; [8],2.3 × 10^7 cfu/ml*
same,cfu per ml,Candida albicans [2]; [9],2.3 × 10^7 cfu/ml*
same,cfu per ml,Candida albicans [2]; [10],2.2 × 10^7 cfu/ml*
same,cfu calculated per ml cell culture,[3]; [11],1.0 × 10^5 cfu/ml
same,cfu calculated per ml cell culture,[3]; [12],1.0 × 10^5 cfu/ml
same,cfu calculated per ml cell culture,[3]; [13],1.1 × 10^8 cfu/ml
same,cfu calculated per ml cell culture,[3]; [14],1.0 × 10^5 cfu/ml
same,growth inhibition,[3]; [15],almost complete
same,colonies (cfu) after contact sampling,[3]; [16],two colonies
same,growth after contact sampling without irradiation,[3]; [17],lawn of bacteria
same,cfu per ml,"Staphylococcus aureus [4]; black light lamp, irradiation for 30 s, dilution 10^−5",1.2 × 10^8 cfu/ml
same,cfu per ml,"Staphylococcus aureus [4]; black light lamp, irradiation for 3 min, dilution 10^−5",1.5 × 10^7 cfu/ml
same,colony forming units obtained,Staphylococcus aureus [4],177 cfu
same,colonies detected,Staphylococcus aureus [4]; [18],one colony
same,cfu per ml,"Staphylococcus aureus [4]; irradiation 2 min with LED1, 620-640 nm, dilution 10^−5",1.2×10^7 cfu/ml
same,cfu per ml,"Staphylococcus aureus [4]; irradiation 2 min with LED2, 620-640 nm, dilution 10^−5",2.0×10^6 cfu/ml
same,colonies detected,"Staphylococcus aureus [4]; black light lamp 350-370 nm, dilution 10^−5",15
same,colonies detected,"Staphylococcus aureus [4]; mercury lamp 515-560 nm, dilution 10^−5",No colonies
same,cfu per ml,"Staphylococcus aureus [4]; mercury lamp, irradiation for 30 s, dilution 10^−5",2.1 × 10^7 cfu/ml
same,cfu per ml,"Staphylococcus aureus [4]; mercury lamp, irradiation for 3 min, dilution 10^−5",1.0 × 10^5 cfu/ml
same,cfu calculated per ml cell culture,Staphylococcus aureus [1]; [11],0 cfu/ml
same,cfu calculated per ml cell culture,Staphylococcus aureus [1]; [12],0 cfu/ml
same,cfu calculated per ml cell culture,Staphylococcus aureus [1]; [13],1.7 × 10^8 cfu/ml
same,cfu calculated per ml cell culture,Staphylococcus aureus [1]; [14],0 cfu/ml
same,number of colonies upon irradiation,"Staphylococcus aureus [1]; irradiation 2 min with LED1, 620-640 nm",significant reduction of the number of colonies
same,number of colonies upon irradiation,"Staphylococcus aureus [1]; irradiation 2 min with LED2, 620-640 nm",significant reduction of the number of colonies
same,growth inhibition,Staphylococcus aureus [1]; [15],complete
same,colonies (cfu) after contact sampling,Staphylococcus aureus [1]; [16],no colonies
same,growth after contact sampling without irradiation,Staphylococcus aureus [1]; [17],lawn of bacteria
same,microbial growth upon irradiation,Candida albicans [5],significant reduction of microbial growth
same,cfu per ml,[6]; [7],2.9 × 10^7 cfu/ml
same,cfu per ml,[6]; [8],0 cfu/ml
same,cfu per ml,[6]; [9],1.4 × 10^7 cfu/ml
same,cfu per ml,[6]; [10],0 cfu/ml
"CCNc1cc2[s+]c3cc(NCC)c(C)cc3nc2cc1C.[Cl-] [new methylene blue, 3,7-bis(ethylamino)-2,8-dimethylphenaza-thionium chloride]",cell growth,Staphylococcus aureus [1]; LED 623 nm,only a small reduction of cell growth
same,reduction of cell growth,"Staphylococcus aureus [1]; LED 623 nm, irradiation for 2 min and 5 min, data not shown",more than 50%
Cc1cc2nc3ccc(=[N+](C)C)cc-3sc2cc1N.[Cl-] [toluidine blue],colony forming units obtained,Staphylococcus aureus [4],89 cfu
same,colonies detected,Staphylococcus aureus [4]; [18],no colony
same,cfu calculated per ml cell culture,Staphylococcus aureus [1]; [11],9.0 × 10^4 cfu/ml
same,cfu calculated per ml cell culture,Staphylococcus aureus [1]; [12],5.0 × 10^4 cfu/ml
same,cfu calculated per ml cell culture,Staphylococcus aureus [1]; [13],8.9 × 10^6 cfu/ml
same,cfu calculated per ml cell culture,Staphylococcus aureus [1]; [14],0 cfu/ml
